The source made the active and inactive calls. How the calls were made is not given here.
Key:
[1] = Stage specific vaccinia inhibitors, dry powder dose response, infected cell reporter fluorescence (AID 1053168); settings: Vaccinia-infected cells, mCherry/Venus stage reporter fluorescence; at 21 µM (top of the series)
[2] = system: Vaccinia-infected cells, mCherry/Venus stage reporter fluorescence; assay: as above; settings: measured here: mCherry reporter AC50

OC[C@H]1Nc2ccc(-c3cccc(F)c3)cc2[C@H]2[C@@H]1CCN2Cc1ccc(F)cc1
activity change, negative = inhibition [1]: -30.8% (inactive) | AC50 [2]: > 42 µM
